Assay results reported in ChEMBL document CHEMBL1201862, “PubChem BioAssay data set” (2004).
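Cells were grown in 96-well plates and exposed to each compound for 48 hours at five concentrations; endpoints were interpolated linearly between bracketing concentrations, or set to the highest concentration if not reached. GI50 marks 50% less growth.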 Active and inactive are the calls of the source. Cut-off read from the data, not from the text of the source: active = GI50 up to about 1.1 µM and inactive = higher.

Columns and labels:
Test in all cases: NCI-60 cell line screen, 48 h
[1] = test system: COLO 205
[2] = test system: U-251
[3] = test system: OVCAR-5
[4] = test system: HT-29
[5] = test system: HL-60
[6] = test system: HOP-62
[7] = test system: SNB-75
[8] = test system: K562
[9] = test system: NCI-H460
[10] = test system: SK-MEL-2
[11] = test system: HCT-15
[12] = test system: EKVX
[13] = test system: HOP-92
[14] = test system: SK-MEL-28
[15] = test system: SF-295
[16] = test system: KM12
[17] = test system: HCT-116
[18] = test system: CAKI-1
[19] = test system: SR

SMILES | GI50 [1] | GI50 [2] | GI50 [3] | GI50 [4] | GI50 [5] | GI50 [6] | GI50 [7] | GI50 [8] | GI50 [9] | GI50 [10] | GI50 [11] | GI50 [12] | GI50 [13] | GI50 [14] | GI50 [15] | GI50 [16] | GI50 [17] | GI50 [18] | GI50 [19]
CC1=NN2C(c3ccc(C)cc3)=CSC2=NC(C)(C)C1 | > 100 µM (inactive) | > 100 µM (inactive) | > 100 µM (inactive) | > 100 µM (inactive) | 76.2 µM (inactive) | > 100 µM (inactive) | > 100 µM (inactive) | 61.5 µM (inactive) | > 100 µM (inactive) | > 100 µM (inactive) | > 100 µM | > 100 µM (inactive) | > 100 µM (inactive) | > 100 µM (inactive) | > 100 µM (inactive) | > 100 µM (inactive) | > 100 µM (inactive) |  | 
O=C(Nc1ccccc1)c1ccc(Cl)c([N+](=O)[O-])c1 | 28.2 µM (inactive) | 19.5 µM (inactive) |  | 13.4 µM (inactive) |  | 32.7 µM (inactive) | 13.8 µM (inactive) | 2.96 µM (inactive) | 6.31 µM (inactive) | 13.2 µM (inactive) | 7.24 µM | 28.4 µM (inactive) |  | 22.4 µM (inactive) | 15.3 µM (inactive) | 3.09 µM (inactive) |  | 6.05 µM (inactive) | 
CC(NC(=O)C(=O)N/N=C1\C[C@@H](c2ccccc2)Nc2ccccc21)c1ccccc1 (some centres undefined) | 48.2 µM (inactive) | > 100 µM (inactive) | > 100 µM (inactive) | 80.7 µM (inactive) | 8.57 µM (inactive) | > 100 µM (inactive) | 10.7 µM (inactive) |  | > 100 µM (inactive) | 53 µM (inactive) |  | 17.1 µM (inactive) | 20 µM (inactive) | > 100 µM (inactive) | > 100 µM (inactive) | > 100 µM (inactive) | > 100 µM (inactive) | > 100 µM (inactive) | 
CNS(=O)(=O)NNS(=O)(=O)c1ccc(F)cc1 | > 100 µM (inactive) | > 100 µM (inactive) |  | > 100 µM (inactive) | > 100 µM (inactive) | > 100 µM (inactive) | > 100 µM (inactive) | > 100 µM (inactive) | 59.3 µM (inactive) | > 100 µM (inactive) | > 100 µM | > 100 µM (inactive) |  |  | > 100 µM (inactive) | > 100 µM (inactive) | > 100 µM (inactive) | > 100 µM (inactive) | > 100 µM (inactive)
CCC1OC2C(CC=C(C)C)=C3OC(C)(O)C(C)(CC)C(=O)C3=C3OC(=O)C=C1C32 (centres undefined) | 20.5 µM (inactive) | 36 µM (inactive) | 65.3 µM (inactive) |  |  |  |  | 26 µM (inactive) | 17.4 µM (inactive) | 17.3 µM (inactive) | 32.4 µM | 29.4 µM (inactive) | 21.7 µM (inactive) | 27.6 µM (inactive) | 47 µM (inactive) | 34.4 µM (inactive) | 15.5 µM (inactive) | 54.2 µM (inactive) | 
NCc1c(C(N)=O)ncn1Cc1ccccc1 | > 100 µM (inactive) | > 100 µM (inactive) |  | > 100 µM (inactive) | > 100 µM (inactive) | > 100 µM (inactive) | > 100 µM (inactive) | > 100 µM (inactive) | > 100 µM (inactive) |  | > 100 µM | > 100 µM (inactive) | 65.9 µM (inactive) | > 100 µM (inactive) | > 100 µM (inactive) |  | > 100 µM (inactive) | > 100 µM (inactive) | 
CC(=O)NNc1nc(C)c(C(/C=C/c2ccc(Cl)cc2)=N/NC(=O)C[N+](C)(C)C)s1 | > 100 µM (inactive) |  | > 100 µM (inactive) | > 100 µM (inactive) | > 100 µM (inactive) |  | > 100 µM (inactive) | > 100 µM (inactive) | > 100 µM (inactive) | > 100 µM (inactive) | > 100 µM | > 100 µM (inactive) | > 100 µM (inactive) | > 100 µM (inactive) | > 100 µM (inactive) | > 100 µM (inactive) | > 100 µM (inactive) | > 100 µM (inactive) | 
Nc1nc(N)c(-c2ccccc2)c(C(=O)Nc2nccs2)n1 | > 100 µM (inactive) | > 100 µM (inactive) | > 100 µM (inactive) | > 100 µM (inactive) | > 100 µM (inactive) | > 100 µM (inactive) |  | > 100 µM (inactive) | > 100 µM (inactive) | > 100 µM (inactive) | > 100 µM | > 100 µM (inactive) | > 100 µM (inactive) | > 100 µM (inactive) | > 100 µM (inactive) | > 100 µM (inactive) | > 100 µM (inactive) | > 100 µM (inactive) | 
Cc1ccc(Nc2nc(C)c(C(/C=C/c3ccc4c(c3)OCO4)=N/Nc3ccc([N+](=O)[O-])cc3[N+](=O)[O-])s2)c([N+](=O)[O-])c1 | 56.5 µM (inactive) | 49.2 µM (inactive) | 43.9 µM (inactive) | 50.6 µM (inactive) | 21.7 µM (inactive) | 32.8 µM (inactive) | 56.8 µM (inactive) | 14.3 µM (inactive) | 41 µM (inactive) | 28 µM (inactive) | 25.8 µM | 24.5 µM (inactive) |  | > 100 µM (inactive) | 65 µM (inactive) | 24 µM (inactive) | 52.7 µM (inactive) | 25.1 µM (inactive) | 24.4 µM (inactive)
COc1cc(C(C)c2cc3c(cc2OCCNC(=O)COc2cc4c(cc2C(C)c2cc(OC)c(OC)c(OC)c2)OCO4)OCO3)cc(OC)c1OC (centres undefined) | 48.2 µM (inactive) | > 100 µM (inactive) | 6.38 µM (inactive) | > 100 µM (inactive) | > 100 µM (inactive) | 58.7 µM (inactive) | 3.09 µM (inactive) | 73.1 µM (inactive) | 22.2 µM (inactive) | > 100 µM (inactive) | 87.3 µM | 29.6 µM (inactive) |  | > 100 µM (inactive) | > 100 µM (inactive) | > 100 µM (inactive) | 87.9 µM (inactive) | > 100 µM (inactive) | > 100 µM (inactive)
Cc1nc(-[n+]2nc(-c3ccncc3)nn2-c2ccccc2)sc1C | 34.4 µM (inactive) | 29.4 µM (inactive) | 44.6 µM (inactive) | 55.1 µM (inactive) | 57.5 µM (inactive) | 7.96 µM (inactive) | 42.9 µM (inactive) | 4.91 µM (inactive) |  | > 100 µM (inactive) | 16.4 µM | 27.2 µM (inactive) |  | 34.5 µM (inactive) | 9.93 µM (inactive) | 36.9 µM (inactive) | 13.4 µM (inactive) | 19.1 µM (inactive) | > 100 µM (inactive)
COc1ccc(/C=C/C(=O)C(C)(C)CN2CCCCC2)cc1 | 15.6 µM (inactive) | 15.4 µM (inactive) | 33.7 µM (inactive) | 16.6 µM (inactive) | 18.6 µM (inactive) | 32.2 µM (inactive) | 12.4 µM (inactive) | 24.2 µM (inactive) | 18.7 µM (inactive) | 16.3 µM (inactive) | 16.3 µM | 44.7 µM (inactive) |  | 24.2 µM (inactive) | 38.1 µM (inactive) | 22.1 µM (inactive) | 16.2 µM (inactive) |  | 
CC(=O)N(C)c1ccc2c(ccc[n+]2[O-])c1[N+](=O)[O-] | > 100 µM (inactive) | > 100 µM (inactive) | > 100 µM (inactive) | > 100 µM (inactive) | > 100 µM (inactive) | > 100 µM (inactive) | > 100 µM (inactive) | > 100 µM (inactive) | > 100 µM (inactive) | > 100 µM (inactive) | > 100 µM | > 100 µM (inactive) |  | > 100 µM (inactive) | > 100 µM (inactive) | > 100 µM (inactive) | > 100 µM (inactive) | > 100 µM (inactive) | 
Cc1ccc(C(=O)Nc2ccccc2)cc1/N=N/N(C)C |  | > 100 µM (inactive) |  | > 100 µM (inactive) |  | > 100 µM (inactive) |  |  | > 100 µM (inactive) | > 100 µM (inactive) | > 100 µM | > 100 µM (inactive) | > 100 µM (inactive) | > 100 µM (inactive) | > 100 µM (inactive) | > 100 µM (inactive) | > 100 µM (inactive) | > 100 µM (inactive) | 
COC(=O)C1N=CSCC1(C)O (centres undefined) | > 100 µM (inactive) |  | > 100 µM (inactive) | > 100 µM (inactive) | > 100 µM (inactive) | > 100 µM (inactive) | > 100 µM (inactive) | > 100 µM (inactive) | > 100 µM (inactive) | > 100 µM (inactive) | > 100 µM | > 100 µM (inactive) | > 100 µM (inactive) | > 100 µM (inactive) | > 100 µM (inactive) | > 100 µM (inactive) | > 100 µM (inactive) | > 100 µM (inactive) | 
O=C(/C=C\c1cccc2ccccc12)c1ccc(Cl)cc1Cl | 22.4 µM (inactive) | 16.4 µM (inactive) | 24.4 µM (inactive) | 17.9 µM (inactive) | 18.2 µM (inactive) | > 100 µM (inactive) | > 100 µM (inactive) | 18.9 µM (inactive) | 23.4 µM (inactive) |  | 13.7 µM | 36.5 µM (inactive) |  | 18.5 µM (inactive) | 20.5 µM (inactive) | 17.2 µM (inactive) | 18.7 µM (inactive) | 47.5 µM (inactive) | 
O=[N+]([O-])c1nccn1CC(O)c1ccccc1 (centres undefined) | > 100 µM (inactive) | > 100 µM (inactive) | > 100 µM (inactive) | > 100 µM (inactive) | > 100 µM (inactive) | > 100 µM (inactive) | > 100 µM (inactive) | > 100 µM (inactive) | > 100 µM (inactive) | > 100 µM (inactive) | > 100 µM | > 100 µM (inactive) | > 100 µM (inactive) | > 100 µM (inactive) | > 100 µM (inactive) | > 100 µM (inactive) |  | > 100 µM (inactive) | 
